Source: patent US4879311A, “Derivatives of benzoyloxyacetic acid, and preparation and formulations thereof for therapeutic use” (Inverni della Beffa S.p.A., priority 1987, dated 1989)
Read-outs that look alike come from different tables or passages of the source.

Legend:
carrageenin oedema = carrageenin oedema test in the rat, oral administration; type: in vivo; conditions: rat, oral; for % change of increase of original volume, 1 h / % change of increase of original volume, 2 h / % change of increase of original volume, 3 h / % change of increase of original volume, 4 h / % change of increase of original volume, 5 h: vs controls
Method: (§1) The anti-inflammatory and analgesic activity of compound Ib was tested after oral administration in the carrageenin oedema test in the rat (C. A. Winter et al. Proc. Soc. Exp. Biol. Med., 111, 544, 1962), in the phenylquinone writhing test (I. C. Hendershot and J. J. Forsaith, Pharmacol. Exp. Ther., 125, 237, 1959) and in the hot plate test on the mouse (N. B. Eddy and D. J. Leimbach, J. Pharmacol. Exp. Ther., 107, 385, 1953). The activity of the compound was compared with equimolecular doses of sodium meclofenamate. A comparison was also made between the acute toxicity of the two substances by measuring the oral LD 50 on the rat.
The substances under test, dissolved in distilled water, were administered by a stomach probe 1 hour before subplantar injection of carrageenin (1% in sterile 0.9% NaCl aqueous solution). […]

[1] = system: writhing induced by phenylquinone; assay: phenylquinone writhing test, oral administration; type: in vivo, mouse; conditions: oral
Method: as §1
The substances under test were administered by a stomach probe 1 hour before intraperitoneal injection of phenylquinone (2 mg/kg). The abdominal contractions of the treated animals and the controls were counted during every 10 minutes for half an hour.

[2] = system: reaction time to heat (hot plate); type: in vivo, mouse; conditions: oral; for Percentages of mice protected at 30 minutes / Percentages of mice protected at 60 minutes: reaction time 15 seconds or more, 55° C.
Method: as §1
The substances under test were administered by a stomach probe to preselected mice. The controls and the treated animals were placed on the hot plate (55° C.) one at a time immediately after treatment. The reaction time to heat, was measured 30 and 60 minutes after treatment. Animals were considered protected when the reaction time was 15 seconds or more.

[3] = acute toxicity on the rat, oral LD50; type: in vivo; conditions: rat, in vivo, po
Method: as §1
(§2) The two LD 50 values were calculated by the probit method.

rat = assay: acute toxicity on the rat, oral LD50; type: in vivo; conditions: oral LD50, probit method
Method: as §1, §2

arachidonic acid oedema = arachidonic acid oedema in the rat, oral administration; type: in vivo; conditions: for change of Increase of Original Volume (in parentheses), 60 min: vs controls
Method: (1) Arachidonic acid oedema in the rat (M. J. Di Martino, G. C. Campbell Jnr., C. E. Wolff and N. Hanna, Agents and Actions; 21, 303, 1987)
Compound Ib was administered by gastric probe one hour before subplantar injection of 0.1 ml of 0.5% arachidonic acid in carbonate buffer (pH 8-8.2).
The volume of the paws of the treated animals and of the control was measured with a plethysmometer immediately and 60 minutes after the irritating agent (peak time of oedema).

[4] = system: 6-day old air pouch irritated by carrageenan; assay: irritation of 6-day old air pouch by carrageenan in the rat; type: in vivo; conditions: os
Method: (2) Irritation of 6-day old air pouch by carrageenan in the rat (A. D. Sedgwick, Y. M. Sin, A. R. Mackay, A. Al-Duaij and D. A. Willoughby; J. Pharm. Pharmacol.; 36, 171, 1984).
The formation of a dorsal pouch was induced in the rat by dorsal subcutaneous administration of 20 ml of air. 10 ml of air were then injected every day for three consecutive days in order to keep the cavity permeable. Six days after the first injection of air, the dorsal pouch in the animals was treated with 1 ml of 1% carrageenan in physiological solution.
Compound Ib was administered by gastric probe, 24 hours and 1 hour before administration of the irritating agent.
The animals, dividedinto groups of five, were killed 4 hours and 24 hours after the carrageenan. The volume of the exudate and the total number of leucocytes were measured.

pH of aqueous solution = type: physicochemical; conditions: 1% aqueous solution (Ib)
[5] = dose corresponding to 10 mg/kg meclofenamic acid (Ib 12.7 mg/kg; sodium meclofenamate 11.0 mg/kg)
[6] = dose corresponding to 10 mg/kg meclofenamic acid
[7] = dose corresponding to 20 mg/kg meclofenamic acid (Ib 25,4 mg/kg; sodium meclofenamate 22,0 mg/kg), **P < 0.01 vs controls
[8] = dose corresponding to 20 mg/kg meclofenamic acid
[9] = Ib 12.7 mg/kg, sodium meclofenamate 11.0 mg/kg
[10] = Ib 25.4 mg/kg, sodium meclofenamate 22.0 mg/kg
[11] = dose corresponding to 10 mg/kg meclofenamic acid (Ib 12.7 mg/kg; sodium meclofenamate 11.0 mg/kg), **P < 0.01 vs controls
[12] = dose corresponding to 20 mg/kg meclofenamic acid (Ib 25.4 mg/kg; sodium meclofenamate 22.0 mg/kg), **P < 0.01 vs controls
[13] = Ib 12.7 mg/kg, sodium meclofenamate 11 mg/kg
[14] = Ib 25.4 mg/kg, sodium meclofenamate 22 mg/kg
[15] = Ib 31.75 mg/kg × 2 (**P < 0.01), sodium meclofenamate 27.5 mg/kg × 2 (*P < 0.05 vs controls), 24 h
[16] = Ib 31.75 mg/kg × 2, sodium meclofenamate 27.5 mg/kg × 2, 4 h, vs controls
[17] = Ib 31.75 mg/kg × 2, sodium meclofenamate 27.5 mg/kg × 2, 24 h, vs controls

## Cc1ccc(Cl)c(Nc2ccccc2C(=O)O)c1Cl [Sodium meclofenamate, sodium meclofenamate, reference compound]
Carrageenin oedema; [5]
  Increase of original volume (m ± s.e.), 1 h: 0.41 ± 0.05 mL
  Increase of original volume (m ± s.e.), 2 h: 0.87 ± 0.10 mL
  Increase of original volume (m ± s.e.), 3 h: 1.42 ± 0.10 mL
  Increase of original volume (m ± s.e.), 4 h: 1.12 ± 0.07 mL
  Increase of original volume (m ± s.e.), 5 h: 1.39 ± 0.08 mL
Carrageenin oedema; [6]
  % change of increase of original volume, 1 h: -13%
  % change of increase of original volume, 2 h: -8%
  % change of increase of original volume, 3 h: -7%
  % change of increase of original volume, 4 h: -6%
  % change of increase of original volume, 5 h: -10%
Carrageenin oedema; dose corresponding to 20 mg/kg meclofenamic acid (Ib 25,4 mg/kg; sodium meclofenamate 22,0 mg/kg)
  Increase of original volume (m ± s.e.), 1 h: 0.36 ± 0.05 mL
Carrageenin oedema; dose corresponding to 20 mg/kg meclofenamic acid (Ib 25,4 mg/kg; sodium meclofenamate 22,0 mg/kg), *P < 0.05
  Increase of original volume (m ± s.e.), 2 h: 0.65 ± 0.05 mL
Carrageenin oedema; [7]
  Increase of original volume (m ± s.e.), 3 h: 0.77 ± 0.07 mL
  Increase of original volume (m ± s.e.), 4 h: 1.07 ± 0.09 mL
  Increase of original volume (m ± s.e.), 5 h: 1.24 ± 0.07 mL
Carrageenin oedema; [8]
  % change of increase of original volume, 1 h: -20%
  % change of increase of original volume, 2 h: -32%
  % change of increase of original volume, 3 h: -43%
  % change of increase of original volume, 4 h: -33%
  % change of increase of original volume, 5 h: -25%
Carrageenin oedema; vs sodium meclofenamate
  anti-inflammatory activity compared with reference (in words): behaved in similar manner
Carrageenin oedema; read-out: dose at which antagonism of the oedema is statistically significant
  minimal effective dose: 68 µmol/kg
[1]; [9]
  % Protection, 0-10 minutes: 52%
  % Protection, 10-20 minutes: 20%
  % Protection, 20-30 minutes: 40%
  % Protection, total: 43%
[1]; [10]
  % Protection, 0-10 minutes: 60%
  % Protection, 10-20 minutes: 33%
  % Protection, 20-30 minutes: 46%
  % Protection, total: 53%
[1]; [5]
  Writhing (m ± s.e.) during 10-20 minutes: 16.5 ± 1.0
  Writhing (m ± s.e.) during 20-30 minutes: 8.6 ± 0.4
[1]; [11]
  Writhing (m ± s.e.) during 0-10 minutes: 12.0 ± 1.6
  Writhing (m ± s.e.), total minutes: 34.2 ± 1.5
[1]; dose corresponding to 20 mg/kg meclofenamic acid (Ib 25.4 mg/kg; sodium meclofenamate 22.0 mg/kg)
  Writhing (m ± s.e.) during 10-20 minutes: 13.7 ± 1.5
[1]; [12]
  Writhing (m ± s.e.) during 0-10 minutes: 10.0 ± 1.1
  Writhing (m ± s.e.) during 20-30 minutes: 7.7 ± 0.8
  Writhing (m ± s.e.), total minutes: 28.0 ± 2.9
[2]; mouse
  activity in the hot plate test (in words): inactive
[2]; [13]
  Percentages of mice protected at 30 minutes: 0%
  Percentages of mice protected at 60 minutes: 0%
[2]; [14]
  Percentages of mice protected at 30 minutes: 0%
  Percentages of mice protected at 60 minutes: 0%
[3]; male and female rats, 20 days of observation, probit method, read-out: DL50
  LD50 at 480 h: 127 mg/kg
[3]; mg/kg meclofenamic acid, read-out: LD50 as corresponding meclofenamic acid
  LD50 at 480 h: 119 mg/kg
rat
  Slope: 7.402 ± 2.014
Arachidonic acid oedema; [13]
  change of Increase of Original Volume (in parentheses), 60 min: -6
Arachidonic acid oedema; Ib 38.1 mg/kg, sodium meclofenamate 33 mg/kg
  change of Increase of Original Volume (in parentheses), 60 min: -29
Arachidonic acid oedema; dose corresponding to 10 mg/kg meclofenamic acid (Ib 12.7 mg/kg; sodium meclofenamate 11 mg/kg)
  Increase of Original Volume (m ± s.e.), 60 min: 0.58 ± 0.05
Arachidonic acid oedema; dose corresponding to 30 mg/kg meclofenamic acid (Ib 38.1 mg/kg, **P < 0.01; sodium meclofenamate 33 mg/kg, *P < 0.05 vs controls)
  Increase of Original Volume (m ± s.e.), 60 min: 0.44 ± 0.06
Arachidonic acid oedema; rat, oedema reduced in statistically significant manner
  statistically significant dose as fraction of the LD50: 1/4
[4]; [15]
  Leucocytes (m ± s.e.), 24 h: 40.14 ± 11.99 × 10^6
  Volume of exudate (m ± s.e.), 24 h: 0.52 ± 0.12 mL
[4]; Ib 31.75 mg/kg × 2 (*P < 0.05 vs controls), sodium meclofenamate 27.5 mg/kg × 2, 4 h
  Leucocytes (m ± s.e.), 4 h: 4.36 ± 1.76 × 10^6
[4]; [16]
  change of leucocytes (in parentheses), 4 h: -2
  change of volume of exudate (in parentheses), 4 h: -6
[4]; [17]
  change of leucocytes (in parentheses), 24 h: -52
  change of volume of exudate (in parentheses), 24 h: -42
[4]; dose corresponding to 25 mg/kg meclofenamic acid × 2 (Ib 31.75; sodium meclofenamate 27.5 mg/kg), 4 h
  Volume of exudate (m ± s.e.), 4 h: 0.30 ± 0.05 mL
pH of aqueous solution
  pH of aqueous solution (in words): markedly alkaline pH
